Experiments:
CD34+ cells [1] = test: Ex vivo expansion of purified CD34+ cells in liquid culture: cell enumeration and FACS of subsets; assay type: cell-based, human; settings: three weeks, 5, 10 or 20 μM
Experimental: Sample collection and processing: Samples were obtained from umbilical human cord blood and processed within 12 hours. The blood cells were mixed with 3% Gelatin (Gigma, St. Louis, Mo.) and allowed to sediment for 30 minutes to remove most red blood cells. The leukocyte-rich fraction was harvested, layered on Ficoll-Hypaque (density 1.077 gram/ml; Sigma) and centrifuged at 400 g for 30 minutes at room temperature. The mononuclear cells in the interface layer were then collected, washed three times in phosphate-buffered saline (PBS; Biological Industries), and re-suspended in PBS solution which contains 1% bovine serum albumin (BSA; Sigma). The cells were then incubated at 4° C. for 30 minutes with murine monoclonal anti CD34^+ antibody (0.5 μg/10^6 mononuclear cells) and were thereafter isolated using two cycles of immuno-magnetic separation using the miniMACS CD34^+ Progenitor Cell Isolation Kit (Miltenyi-Biotec, Auburn, Calif.) according to the manufacturer's recommendations. The purity of the CD34^+ cells obtained ranged between 95% and 98%, based on Flow Cytometry evaluation (see below). Ex vivo expansion of progenitor cells: Enriched CD34^+ cell fractions were cultures in 24-well Costar Cell Culture Clusters (Corning Inc., Corning, N.Y.) or in Culture Bags (American Fluoroseal Corp.) with alpha minimal essential medium supplemented with 10% fetal bovine serum (FBS, Biological Industries), at about 1-3×10^4 cells/ml medium. The media were further supplemented with the following human recombinant cytokines (all obtained from Perpo Tech, Inc., Rocky Hill, N.J.): Thrombopoietin (TPO), 50 ng/ml; interleukin 6 (IL-6), 50 ng/ml; FLT-3 ligand, 50 ng/ml; and IL-3, 20 ng/ml. The cultures were incubated at 37° C. in an atmosphere of 5% CO2 in air with extra humidity. At weekly intervals cell cultures were semi-depopulated and supplemented with fresh medium containing the cytokines. Following different incubation periods, the cells were harvested, stained with trypan blue and enumerated. The total cell counts, numbers of CD34^+ cells and subsets thereof, and the number of colony-forming cells (CFU) are presented herein as cumulative numbers, with the assumption that the cultures had not been passaged, namely, the numbers of cells per ml were multiplied by the number of passages performed. Surface antigen analysis: At different time intervals, the cultured cells were harvested, washed with a PBS solution containing 1% BSA and 0.1% sodium azide (Sigma), and stained, at 4° C. for 60 minutes, with FITC-labeled anti CD45 monoclonal antibody and either PE-labeled anti CD34 (HPCA-2) monoclonal or PE-labeled control mouse Ig (all from Immunoquality Products, the Netherlands). The cells were then washed with the same PBS solution and were analyzed by a flow cytometer, as described hereinafter. Flow cytometry analysis: Cells were analyzed and sorted using FACS caliber flow cytometer (Becton-Dickinson, Immunofluorometry systems, Mountain View, Calif.). Cells were passed at a rate of 1,000 cells/second through a 70 μm nozzle, using a saline sheath fluid. A 488 nm argon laser beam at 250 mW served as the light source for excitation. Fluorescence emission of ten thousand cells was measured using a logarithmic amplification and analyzed using CellQuest software. Determination of the density of stem and progenitor subset populations following expansion: Following an incubation period, the CD34^+ cells were re-selected using miniMACS Miltenyi kit. The purity of the positive fraction of selected CD34^+ cells was confirmed by FACS analysis as well as by cell morphology analysis. The density of CD34^+ cells, in proportion (percentage) to total cells, was determined directly via FACS analysis. The densities of CD34^+ subset populations were determined from the purified CD34^+ fraction. Re-selected CD34^+ cells were stained with lineage specific antigens followed by FACS analysis to determine the percentage of the subset populations within the total number of CD34^+ cells. […]

CD34+ cells [2] = test: Self-renewal potential: colony-forming cells (CFU) from CD34+ cultures; assay type: cell-based, human; settings: five-weeks culture; 10 or 20 μM, added first three weeks; FIG. 9
Source text: Ex vivo expansion of progenitor cells: Enriched CD34^+ cell fractions were cultures in 24-well Costar Cell Culture Clusters (Corning Inc., Corning, N.Y.) or in Culture Bags (American Fluoroseal Corp.) with alpha minimal essential medium supplemented with 10% fetal bovine serum (FBS, Biological Industries), at about 1-3×10^4 cells/ml medium. The media were further supplemented with the following human recombinant cytokines (all obtained from Perpo Tech, Inc., Rocky Hill, N.J.): Thrombopoietin (TPO), 50 ng/ml; interleukin 6 (IL-6), 50 ng/ml; FLT-3 ligand, 50 ng/ml; and IL-3, 20 ng/ml. The cultures were incubated at 37° C. in an atmosphere of 5% CO2 in air with extra humidity. At weekly intervals cell cultures were semi-depopulated and supplemented with fresh medium containing the cytokines. Following different incubation periods, the cells were harvested, stained with trypan blue and enumerated. The total cell counts, numbers of CD34^+ cells and subsets thereof, and the number of colony-forming cells (CFU) are presented herein as cumulative numbers, with the assumption that the cultures had not been passaged, namely, the numbers of cells per ml were multiplied by the number of passages performed. Self-renewal potential evaluations: The self-renewal potential of stem cells was determined in vitro by long-term colony formation. Cells were washed and seeded in a semi-solid methylcellulose medium supplemented with 2 IU/ml erythropoietin ([…] Int., Switzerland), stem cell factor and IL-3, both at 20 ng/ml (Perpo Tech), and G-CSF and GM-CSF, both at 10 ng/ml (Perpo Tech). The resulting colonies were scored after two weeks of incubation at 37° C. in a humidified atmosphere of 5% CO2 in air. Colonies were classified as blast, mixed, erythroid, myeloid, and megakaryocytic, according to their cellular composition.

## [Cl][Cu][Cl] [copper chloride, reference compound]
CD34+ cells [1]; FIG. 8a
  number of total cells vs untreated control: did not differ significantly
CD34+ cells [1]; FIG. 8b
  stem cells (CD34+) vs untreated or chelate-treated cultures: fewer
CD34+ cells [1]; FIG. 8c
  CD34+ CD38− stem/progenitor subset cells vs untreated or chelate-treated cultures: fewer
CD34+ cells [1]; FIG. 8d
  CD34+ Lin− stem/progenitor subset cells vs untreated or chelate-treated cultures: fewer
CD34+ cells [2]
  colony-forming cells of CD34+ vs untreated or TEPA-Cu treated cultures: substantially fewer

Source: patent publication US7655225B2, “Methods of expanding stem and progenitor cells and expanded cell populations obtained thereby” (Gamida Cell, Ltd., priority 2002, dated 2010)
